One data set has as its system thoracic aorta. Nature of the data set: Vasorelaxant effect on isolated vessels (rat thoracic aorta rings without endothelium, precontracted with noradrenalin). Details: species or system Wistar rats. The note with it: for Emax: Rattus norvegicus, maximum inhibition of noradrenalin effect, 10^-8 to 10^-4 M substance, read-out: Maximum Relaxation; for IC50: rat aorta, 10^-7 M noradrenalin contraction. An outline of the steps:
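Endothelium-denuded thoracic aorta rings from Wistar rats, held in Krebs-Ringer buffer (pH 7.4, 37 °C, 95% O2/5% CO2) under isometric tension and precontracted with 10^-7 M noradrenalin, received cumulative compound (10^-8 to 10^-4 M). Maximum relaxation given as percent; IC50 calculated when relaxation exceeded 50%.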

In a further data set the test system is anesthetised pigs. Nature of the data set: Haemodynamic effects on anesthetised pigs. Format: in vivo, pigs ("German land" race). As to the method: Haemodynamic effects of the compounds according to the invention on anesthetised pigs or dogs
Pigs are of "German land" race (20-26 kg) and are used after fasting overnight.
In the case of pigs, sedation, analgesia and anesthesia are induced by ketamine HCl (20 mg/kg i.m.), methonidate HCl (10 mg/kg i.m.), xylacine HCl (3 mg/kg i.m.) and sodium pentobarbitol (25-30 mg/kg as bolus i.v. or 0.16 mg/kg/min as i.v. perfusion).
The pigs or dogs are placed under artificial respiration in ambient air. Analysis of the blood gases (pO2, pCO2) is carried out at regular intervals and oxygen can be supplied via the respirator, if necessary.
The haemodynamic parameters recorded include the left ventricular pressure (LVP; Millar PC350 Tip catheter inserted via the carotid artery), systemic blood pressure (BPs, BPd; full catheter in a femoral artery), the end pressure of the left ventricular diastole (LVEDP), the ventricular contractility (LVPdp/dtmax) and the heart rate (HR).
The haemodynamic variables are recorded continuously for 1 to 3 hours, as a function of the period of action of the compound.
The effects of the compounds studied are shown as the absolute difference with respect to the base value (bv) measured before administration of the compounds and are shown in Table VII (a,b,c).
An antianginal activity is estimated by a fall in the BPs and the LVEDP (fall in venous return).

A short description of data set [1]: Stability in water (seen in optical rotation). In kind it is physicochemical. The following applies: water (c 0.6).
The test system of data set [2] is isolated pulmonary vessel. Nature of the data set: Relaxant activity on blood vessels isolated from guinea pigs (pulmonary artery). The following applies: Cavia porcellus; guinea pig pulmonary artery, K+ depolarised, Ca2+ contraction; read-out: IC50 (relaxation of 50%). As to the method:
Determination of the relaxant activity of the compounds according to the invention on blood vessels isolated from guinea pigs.
The pulmonary artery of male guinea pigs (350-500 g) is isolated and cut into spiral tracts (1 mm wide, 15 mm long). […] After having removed the calcium from the tissues (Tyrode without calcium and 0.2 mM EDTA), the tracts are depolarised in the presence of a concentrated solution of K^+ ions (40 mM), which is produced by replacing the NaCl by equimolar amounts of KCl, and a contraction of long duration is then induced by Ca^2+ ions (0.5 mM).
The compounds studied are then introduced into the organ cell in increasing concentrations.
Each compound is tested on at least four vessel spiral tracts.

Six compounds from US5591758A, “Organic nitrates, processes for their preparation and their use in the treatment of cardiovascular diseases” (Laboratoires Hoechst, SA, priority 1991, dated 1997) can be followed below.

Where a name gives a salt, the structure may show the parent alone.

As for `CC1(C)N[C@H](C(=O)N[C@H]2CO[C@H]3[C@@H]2OC[C@@H]3O[N+](=O)[O-])CS1` [Compound 32, 5-[[(2,2-Dimethyl-4-L-thiazolidinyl)carbonyl]amino]-5-deoxy-2-O-nitro-1,4:3,6-dianhydro-L-iditol monohydrochloride], in the data set with thoracic aorta, the Emax is 100% and the midpoint of inhibition, the IC50, lay at 15 µM. In the data set with anesthetised pigs (pigs, 3,0 mg/kg i.d.), the “BPs (min), period of action” value is given as > 180 min; the “BPs, difference to base value” is recorded as -30 mmHg; the “LVRDP (min), period of action” value was > 180 min; the “LVRDP, difference to base value” is on record as -4,0 mmHg. Also, the stability in water entry in data set [1] is recorded as “instability of the product in water”.
Consider `O=C(O[C@@H]1CO[C@H]2[C@@H]1OC[C@@H]2O[N+](=O)[O-])c1ccccc1SCc1ccccc1` [Compound 28, 5-O-[2-[(Phenylmethyl)thio]benzoyl]-2-O-nitro-1,4:3,6-dianhydro-D-glucitol], for which, in the data set with thoracic aorta, the Emax came to 70% and the concentration for half-maximal inhibition (IC50) worked out at 50 µM. Further, in the data set with anesthetised pigs (pigs, 3,0 mg/kg i.d.), the “BPs (min), period of action” value is > 180 min; the “BPs, difference to base value” is on record as -28 mmHg; the “LVRDP (min), period of action” value is on record as > 180 min; the “LVRDP, difference to base value” is recorded as -6,0 mmHg. The half-maximal inhibitory concentration (IC50) in data set [2] came to 2 µM.
Consider `CC(C)(C)OC(=O)NCC(=O)N[C@H]1CO[C@H]2[C@@H]1OC[C@@H]2O[N+](=O)[O-]` [Compound 5, N-[(t-Butoxy)carbonyl]glycine amide of 5-amino-5-deoxy-2-O-nitro-1,4:3,6-dianhydro-L-iditol], for which, in the data set with thoracic aorta, the Emax was 70% and the IC50 amounted to 25 µM. For the same compound, in the data set with anesthetised pigs (pigs, 1,0 mg/kg i.d.), the “BPs (min), period of action” value is > 120 min; the “BPs, difference to base value” was -24 mmHg; the “LVRDP (min), period of action” value is on record as > 120 min; the “LVRDP, difference to base value” is listed as -4,0 mmHg. Also, in data set [2], the concentration for half-maximal inhibition (IC50) amounted to 14 µM.
Consider `O=C(N[C@H]1CO[C@H]2[C@@H]1OC[C@@H]2O[N+](=O)[O-])c1ccccc1SCc1ccccc1` [Compound 39], for which, in the data set with thoracic aorta, the Emax worked out at 80% and the IC50 is 50 µM. Further, in the data set on anesthetised pigs (pigs, 10,0 mg/kg i.d.), the “BPs (min), period of action” value is on record as > 90 min; the “BPs, difference to base value” was -5 mmHg; the “LVRDP (min), period of action” value was > 90 min; the “LVRDP, difference to base value” was -1,0 mmHg. In data set [2], the IC50 was 1 µM.
In the case of `O=C(O[C@H]1CO[C@H]2[C@@H]1OC[C@H]2O[N+](=O)[O-])c1ccccc1SCc1ccccc1` [Compound 22, 2-O-[2-[(Phenylmethyl)thio]benzoyl]-5-O-nitro-1,4:3,6-dianhydro-D-glucitol], in the data set with thoracic aorta, the Emax is 100% and the half-inhibitory concentration (IC50) amounted to 10 µM. Also, in the data set with anesthetised pigs (pigs, 10 mg/kg i.v.), the “BPs (min), period of action” value is 5 min; the “BPs, difference to base value” was -73 mmHg; the “LVRDP (min), period of action” value amounted to 5 min; the “LVRDP, difference to base value” is given as -2,0 mmHg. Also, the IC50 in data set [2] came to 3 µM.
For `O=C(CNC(=O)OCc1ccccc1)N[C@H]1CO[C@H]2[C@@H]1OC[C@@H]2O[N+](=O)[O-]` [Compound 4, N-[(Benzyloxy)carbonyl]glycine amide of 5-amino-5-deoxy-2-O-nitro-1,4:3,6-dianhydro-L-iditol], in the data set with thoracic aorta, the Emax amounted to 75% and the IC50 was 20 µM. Also, in the data set on anesthetised pigs (pigs, 3,0 mg/kg i.d.), the “BPs (min), period of action” value is given as > 120 min; the “BPs, difference to base value” is -28 mmHg; the “LVRDP (min), period of action” value is on record as > 120 min; the “LVRDP, difference to base value” was -2,0 mmHg. Further, in data set [2], the IC50 was determined as 6 µM.
